Key:
[1] = target: hERG potassium ion channel (Homo sapiens (Human), UniProt Q12809); assay: MK-499 binding; conditions: more active isomer
[2] = target: T1, human SSTR3 (Homo sapiens (Human), UniProt P32745); assay: SSTR3 functional antagonist assay (cAMP, FSK + SS-14, CHO cells); format: cell-based; conditions: 3.5 μM FSK + 100 nM SS-14; more active isomer
Protocol: The effects of compounds that bind to human and murine SSTR3 with various affinities on the functional activity of the receptor were assessed by measuring cAMP production in the presence of Forskolin (FSK) along or FSK plus SS-14 in SSTR3 expressing CHO cells. FSK acts to induce cAMP production in these cells by activating adenylate cyclases, whereas SS-14 suppresses cAMP production in the SSTR3 stable cells by binding to SSTR3 and the subsequent inhibition of adenylate cyclases via an alpha subunit of GTP-binding protein (Gαi).
To measure the antagonism activity of the compounds, we pre-incubated the human or mouse SSTR3 stable CHO cells with the compounds for 15 rain, followed by a one-hour incubation of the cells with a mixture of 3.5 μM FSK+100 nM SS-14 (in the continuous presence of the compounds). The amount of cAMP produced during the incubation was also quantified with the Lance cAMP assay. The antagonism activity of each compound was reflected both by % Inhibition (its maximum ability to block the action of SS-14) and an EC50 value which is the concentration of the test compound required to suppress the effect of 100 nM SS-14 by 50%. The % Inhibition of each compound was calculated using the following formula: % Inhibition=[1−(unknown cAMP/FSK+SS-14 cAMP)]×100

[3] = target: T1, human SSTR3; assay: SSTR3 binding Scintillation Proximity Assay (SPA); conditions: 125I-SS14 radioligand, CHO-K1 membranes; more active isomer
Protocol: The receptor-ligand binding Scintillation Proximity Assay (SPA) (N. D. Cook. Drug Discovery Today 1 (1996), pp. 287-294) for SSTR3 was performed with membranes isolated from Chinese hamster ovary (CHO)-K1 cells stably expressing the cloned human somatostatin receptors. Binding assays were performed in 384 well format using ^125I-SS14 as the radioligand for SSTR3. The assay buffer consisted of 50 mM TrisHCl (pH 7.8) with 1 mM EGTA, 5 mM MgCl2, leupeptin (10 μg/mL), pepstatin (10 μg/mL), bacitracin (200 μg/mL), and aprotinin (0.5 μg/mL). CHO-K1 cell membranes were prebound to SPA beads and incubated with unlabelled test compounds and radiolabeled somatostatin in assay buffer. After 5 hours at room temperature, cpm/well was determined. Test compounds were examined in 10 point titrations over a range of concentrations from 0.00001 nM to 1200 nM. Percent inhibition was determined for each data point using binding in the presence of DMSO as the maximum achievable value. The results were plotted using 4 parameter fit and the inflection point reflecting 50% of the maximum inhibition was reported as the IC50.

[4] = target: T1, human SSTR3; assay: SSTR binding filtration assay (SSTR3); conditions: (3-125I-Tyr11)-SRIF-14 radioligand, CHO-K1 membranes; more active isomer
Protocol: The receptor-ligand binding assays of all 5 subtype of SSTRs were performed with membranes isolated from Chinese hamster ovary (CHO)-K1 cells stably expressing the cloned human somatostatin receptors in 96-well format as previous reported. (Yang et al. PNAS 95:10836-10841, 1998, Birzin et al. Anal. Biochem. 307:159-166, 2002.) The stable cell lines for SSTR1-SSTR5 were developed by stably transfecting with DNA for all five SSTRs using Lipofectamine. Neomycin-resistant clones were selected and maintained in medium containing 400 μg/mL G418 (Rohrer et al. Science 282:737-740, 1998).
Binding assays were performed using (3-^125I-Tyr11)-SRIF-14 as the radioligand (used at 0.1 nM) and The Packard Unifilter assay plate. The assay buffer consisted of 50 mM TrisHCl (pH 7.8) with 1 mM EGTA, 5 mM MgCl2, leupeptin (10 μg/mL), pepstatin (10 μg/mL), bacitracin (200 μg/mL), and aprotinin (0.5 μg/mL). CHO-K1 cell membranes, radiolabeled somatostatin, and unlabeled test compounds were resuspended or diluted in this assay buffer. Unlabeled test compounds were examined over a range of concentrations from 0.01 nM to 10,000 nM. The Ki values for compounds were determined as described by Cheng and Prusoff Biochem Pharmacol. 22:3099-3108 (1973).

T1 sequence (P32745 whole entry): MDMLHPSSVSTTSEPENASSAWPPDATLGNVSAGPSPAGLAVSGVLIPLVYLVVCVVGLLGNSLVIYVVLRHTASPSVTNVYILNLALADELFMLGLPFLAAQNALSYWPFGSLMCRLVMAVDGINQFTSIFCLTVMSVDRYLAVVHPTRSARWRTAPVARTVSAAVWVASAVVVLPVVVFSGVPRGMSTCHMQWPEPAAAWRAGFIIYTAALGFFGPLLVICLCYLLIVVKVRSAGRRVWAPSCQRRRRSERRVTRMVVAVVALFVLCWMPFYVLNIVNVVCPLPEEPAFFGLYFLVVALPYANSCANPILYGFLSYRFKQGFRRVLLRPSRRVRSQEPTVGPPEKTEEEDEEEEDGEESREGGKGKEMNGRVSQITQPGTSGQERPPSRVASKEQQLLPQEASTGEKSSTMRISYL
Sequence of hERG potassium ion channel (Q12809 whole entry): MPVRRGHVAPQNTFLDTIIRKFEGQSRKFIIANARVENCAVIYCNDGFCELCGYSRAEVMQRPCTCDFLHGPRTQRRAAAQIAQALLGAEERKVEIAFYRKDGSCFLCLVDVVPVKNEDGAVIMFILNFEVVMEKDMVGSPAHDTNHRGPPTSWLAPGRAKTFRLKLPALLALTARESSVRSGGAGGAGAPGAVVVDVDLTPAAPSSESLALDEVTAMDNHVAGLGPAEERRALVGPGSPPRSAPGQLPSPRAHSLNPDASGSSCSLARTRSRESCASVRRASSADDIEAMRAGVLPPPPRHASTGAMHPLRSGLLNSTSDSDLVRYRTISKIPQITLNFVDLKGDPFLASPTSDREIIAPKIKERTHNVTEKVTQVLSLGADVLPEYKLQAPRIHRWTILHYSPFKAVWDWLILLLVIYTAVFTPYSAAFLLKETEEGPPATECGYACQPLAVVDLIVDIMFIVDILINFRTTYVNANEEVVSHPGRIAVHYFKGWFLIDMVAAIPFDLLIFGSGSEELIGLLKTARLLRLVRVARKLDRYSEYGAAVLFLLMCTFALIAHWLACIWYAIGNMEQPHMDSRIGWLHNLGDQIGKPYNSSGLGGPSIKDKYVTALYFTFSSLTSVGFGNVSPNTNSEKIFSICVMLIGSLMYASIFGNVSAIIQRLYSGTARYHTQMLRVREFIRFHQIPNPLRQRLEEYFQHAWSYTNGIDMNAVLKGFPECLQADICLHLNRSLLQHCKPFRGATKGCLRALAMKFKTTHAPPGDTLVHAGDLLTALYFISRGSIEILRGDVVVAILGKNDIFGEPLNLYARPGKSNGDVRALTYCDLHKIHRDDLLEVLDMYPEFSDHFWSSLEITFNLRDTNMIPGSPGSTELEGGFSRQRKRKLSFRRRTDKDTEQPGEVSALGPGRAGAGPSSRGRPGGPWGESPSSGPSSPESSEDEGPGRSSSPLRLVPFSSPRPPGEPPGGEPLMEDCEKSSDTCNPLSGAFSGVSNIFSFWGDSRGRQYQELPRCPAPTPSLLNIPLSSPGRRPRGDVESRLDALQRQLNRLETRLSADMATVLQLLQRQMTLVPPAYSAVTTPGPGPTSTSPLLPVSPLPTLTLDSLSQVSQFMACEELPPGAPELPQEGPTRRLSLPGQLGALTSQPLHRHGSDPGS

Cc1nnc(C2(C3CCCCO3)N[C@@H](c3nc(-c4ccc(F)c(C)n4)c[nH]3)Cc3c2[nH]c2ccccc32)o1 (stereo partly shown) [Example 21]
IC50 [1]: 14600 nM | EC50 [2]: 3.1 nM | IC50 [3]: 1.7 nM

COCCOCC1(c2nnc(C3CCOCC3)o2)N[C@@H](c2nc(-c3ccc(F)c(C)n3)c[nH]2)Cc2c1[nH]c1ccccc21 (stereo partly shown) [Example 13]
IC50 [1]: 19600 nM | EC50 [2]: 0.5 nM | Ki [4]: 0.5 nM

CCOCC1(c2nnc(CCOC)o2)N[C@@H](c2nc(-c3ccc(F)c(C)n3)c[nH]2)Cc2c1[nH]c1ccccc21 (stereo partly shown) [Example 7]
IC50 [1]: 23200 nM | EC50 [2]: 0.9 nM | Ki [4]: 0.9 nM

COC1CC(C2(c3nnc(C)o3)N[C@@H](c3nc(-c4ccc(F)c(C)n4)c[nH]3)Cc3c2[nH]c2ccccc32)C1 (stereo partly shown) [Example 17]
IC50 [1]: 21600 nM | EC50 [2]: 1.7 nM | Ki [4]: 1.8 nM

CCOCC1(c2nnc(C(C)C)o2)N[C@@H](c2nc(-c3ccc(F)cn3)c[nH]2)Cc2c1[nH]c1ccccc21 (stereo partly shown) [Example 9]
IC50 [1]: 20200 nM | EC50 [2]: 5.1 nM | Ki [4]: 2.5 nM

Cc1nnc(C2(C3CCCO3)N[C@@H](c3nc(-c4ccc(F)c(C)n4)c[nH]3)Cc3c2[nH]c2ccccc32)o1 (stereo partly shown) [Example 20]
IC50 [1]: 17000 nM | EC50 [2]: 4 nM | Ki [4]: 0.9 nM | IC50 [3]: 4.6 nM

Cc1nc(-c2c[nH]c([C@H]3Cc4c([nH]c5ccccc45)C(c4nnc(C(C)C)o4)(C4CCOCC4)N3)n2)ccc1F (stereo partly shown) [Example 19]
IC50 [1]: 16000 nM | EC50 [2]: 0.7 nM | Ki [4]: 0.6 nM

COC1CCC(C2(c3nnc(C)o3)NC(c3nc(-c4ccc(F)c(C)n4)c[nH]3)Cc3c2[nH]c2ccccc32)CC1 (stereo not shown) [Example 18]
IC50 [1]: 17500 nM | EC50 [2]: 0.6 nM | Ki [4]: 0.3 nM

COCCOCC1(c2nnc(C(C)C)o2)N[C@@H](c2nc(-c3ccc(F)c(C)n3)c[nH]2)Cc2c1[nH]c1ccccc21 (stereo partly shown) [Example 15]
IC50 [1]: 19200 nM | EC50 [2]: 0.6 nM | Ki [4]: 0.4 nM

CCOCC1(c2nnc(CCOC)o2)N[C@@H](c2nc(-c3ccc(F)cn3)c[nH]2)Cc2c1[nH]c1ccccc21 (stereo partly shown) [Example 5]
IC50 [1]: 16500 nM | EC50 [2]: 3.5 nM | Ki [4]: 2.7 nM

CCOCC1(c2nnc(C3(C)CCCO3)o2)N[C@@H](c2nc(-c3ccc(F)c(C)n3)c[nH]2)Cc2c1[nH]c1ccccc21 (stereo partly shown) [Example 11]
IC50 [1]: 19200 nM | EC50 [2]: 0.7 nM | Ki [4]: 0.5 nM

CCOCC1(c2nnc(C(C)(C)C)o2)N[C@@H](c2nc(-c3ccc(F)cn3)c[nH]2)Cc2c1[nH]c1ccccc21 (stereo partly shown) [Example 6]
IC50 [1]: 17900 nM | EC50 [2]: 2.5 nM | Ki [4]: 2.6 nM

COCCOCC1(c2nnc(C3CCOCC3)o2)N[C@@H](c2nc(-c3ccc(F)cn3)c[nH]2)Cc2c1[nH]c1ccccc21 (stereo partly shown) [Example 10]
IC50 [1]: 23400 nM | EC50 [2]: 2.4 nM | Ki [4]: 2.7 nM

[2H]C([2H])([2H])COCC1(c2nnc(C)o2)N[C@@H](c2nc(-c3ccc(F)c(C)n3)c[nH]2)Cc2c1[nH]c1ccccc21 (stereo partly shown) [Example 16]
IC50 [1]: 22300 nM | EC50 [2]: 8.5 nM | Ki [4]: 0.6 nM

COCCOCC1(c2nnc(C)o2)N[C@@H](c2nc(-c3ccc(F)c(C)n3)c[nH]2)Cc2c1[nH]c1ccccc21 (stereo partly shown) [Example 12]
IC50 [1]: 27700 nM | EC50 [2]: 1 nM | Ki [4]: 0.4 nM

CCOCC1(c2nnc(C(C)C)o2)N[C@@H](c2nc(-c3ccc(F)c(C)n3)c[nH]2)Cc2c1[nH]c1ccccc21 (stereo partly shown) [Example 14]
IC50 [1]: 18600 nM | EC50 [2]: 1.3 nM | Ki [4]: 0.4 nM

[2H]C([2H])([2H])OC1CC2C(C1)C2C1(c2nnc(C)o2)N[C@@H](c2nc(-c3ccc(F)c(C)n3)c[nH]2)Cc2c1[nH]c1ccccc21 (stereo partly shown) [Example 22]
IC50 [1]: 22800 nM | EC50 [2]: 1.57 nM | IC50 [3]: 1.2 nM

COCCOCC1(c2nnc(C(C)(C)C)o2)N[C@@H](c2nc(-c3ccc(F)cn3)c[nH]2)Cc2c1[nH]c1ccccc21 (stereo partly shown) [Example 8]
IC50 [1]: 19700 nM | EC50 [2]: 3.7 nM | Ki [4]: 1.4 nM

Source: patent US8754099B2, “Oxadiazole beta carboline derivatives as antidiabetic compounds” (Merck Sharp & Dohme Corp, priority 2010, dated 2014)
